Here are results for one cell line from the supplement of paper PMC10307832.

Holding throughout (test): relative viability (nuclei count vs DMSO), 5 days (fraction); higher = more cells survive
Compound in experiment [1]: Cc1ccc(C(=O)N(CCCN)[C@@H](c2nc3cc(Cl)ccc3c(=O)n2Cc2ccccc2)C(C)C)cc1 [Ispinesib] + C[C@]1(O)C[C@@H](c2nc(-c3ccc4ccc(-c5ccccc5)nc4c3)c3c(N)nccn32)C1 [Linsitinib] (partner 1 µM)
The gist of the method:
(§1)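 Cells from lung cancer lines were seeded into 1536-well plates and, one day later, dosed by pin tool. Treatments were either a single drug or a fixed dose of an anchor drug with five library-drug doses (not always all listed) in √10 steps. After 5 days, nuclei were stained in a one-step fixation (final 0.05% Triton X-100, 1% formaldehyde, 1 ug/ml Hoechst) and counted on 4× images, and relative viability is the treated-to-vehicle nuclei ratio, as the median of duplicate plates.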

Compound in experiment [2]: Cc1ccc(C(=O)N(CCCN)[C@@H](c2nc3cc(Cl)ccc3c(=O)n2Cc2ccccc2)C(C)C)cc1 [Ispinesib] + CS(=O)(=O)CCNCc1ccc(-c2ccc3ncnc(Nc4ccc(OCc5cccc(F)c5)c(Cl)c4)c3c2)o1 [Lapatinib] (partner 2 µM)
The essentials:
as §1

Compound in experiment [3]: Cc1ccc(C(=O)N(CCCN)[C@@H](c2nc3cc(Cl)ccc3c(=O)n2Cc2ccccc2)C(C)C)cc1 [Ispinesib] + CCNC(=O)c1noc(-c2cc(C(C)C)c(O)cc2O)c1-c1ccc(CN2CCOCC2)cc1 [Luminespib] (partner 0.01 µM)
The gist of the method:
as §1

Compound in experiment [4]: Cc1ccc(C(=O)N(CCCN)[C@@H](c2nc3cc(Cl)ccc3c(=O)n2Cc2ccccc2)C(C)C)cc1 [Ispinesib] + CC(=O)Nc1cccc(-n2c(=O)n(C3CC3)c(=O)c3c(Nc4ccc(I)cc4F)n(C)c(=O)c(C)c32)c1 [Trametinib] (partner 0.02 µM)
The essentials: as §1

Take UMC-11: the relative viability amounted to 1.06 in experiment [1] (first compound 0.001 µM); 1.05 in experiment [1] (first compound 0.003162 µM); 1.05 in experiment [1] (first compound 0.01 µM); 0.449 in experiment [1] (first compound 0.03162 µM); 0.244 in experiment [1] (first compound 0.1 µM); 1.08 in experiment [2] (first compound 0.001 µM). For the same cell line, the relative viability in experiment [2] (first compound 0.003162 µM) was found to be 0.751; in experiment [2] (first compound 0.01 µM), 0.723; in experiment [2] (first compound 0.03162 µM) it was 0.294; in experiment [2] (first compound 0.1 µM) it was 0.216; in experiment [3] (first compound 0.001 µM), 0.919; in experiment [3] (first compound 0.003162 µM) it was 1.02. Besides, the relative viability in experiment [3] (first compound 0.01 µM) worked out at 1.05; in experiment [3] (first compound 0.03162 µM) it was 0.451; in experiment [3] (first compound 0.1 µM), 0.323; in experiment [4] (first compound 0.001 µM), 0.685; in experiment [4] (first compound 0.003162 µM), 0.701; in experiment [4] (first compound 0.01 µM), 0.495. The relative viability came to 0.238 in experiment [4] (first compound 0.03162 µM) and 0.309 in experiment [4] (first compound 0.1 µM).
